# From ChEMBL document CHEMBL4325924, “Discovery of Orally Bioavailable and Liver-Targeted Hypoxia-Inducible Factor Prolyl Hydroxylase (HIF-PHD) Inhibitors for the Treatment of Anemia” (ACS Med Chem Lett, 2018)
# Columns and labels:
# [1] = Half life in Beagle dog at 0.175 mg/kg, iv or 1 mg/kg, po administered via gavage by LC-MS/MS analysis; format: ADME, organism-based, Canis lupus familiaris; details: in vivo
# [2] = Oral bioavailability in Wistar Han rat at 2 mg/kg administered via gavage by LC-MS/MS analysis; format: ADME, organism-based; details: in vivo
# [3] = Plasma clearance in Wistar Han rat at 1 mg/kg, iv or 2 mg/kg, po administered via gavage by LC-MS/MS analysis; format: ADME, organism-based
# [4] = Volume of distribution in Beagle dog at 0.175 mg/kg, iv or 1 mg/kg, po administered via gavage by LC-MS/MS analysis; format: ADME, organism-based, Canis lupus familiaris; details: in vivo
# [5] = Half life in Wistar Han rat at 1 mg/kg, iv or 2 mg/kg, po administered via gavage by LC-MS/MS analysis; format: ADME, organism-based; details: in vivo
# [6] = Oral bioavailability in Beagle dog at 1 mg/kg administered via gavage by LC-MS/MS analysis; format: ADME, organism-based, Canis lupus familiaris; details: in vivo
# [7] = Plasma clearance in Beagle dog at 0.175 mg/kg, iv or 1 mg/kg, po administered via gavage by LC-MS/MS analysis; format: ADME, organism-based, Canis lupus familiaris
# [8] = Volume of distribution in Wistar Han rat at 1 mg/kg, iv or 2 mg/kg, po administered via gavage by LC-MS/MS analysis; format: ADME, organism-based; details: in vivo
structure (smiles),measurement,setting,value
O=C(O)CNC(=O)c1c(O)c2c(n(Cc3ccc(C(F)(F)F)cc3)c1=O)COC2,half-life,[1],6.2 h
same,bioavailability,[2],39%
same,clearance,[3],11 mL/min/kg
same,Vd,[4],5.6 L/kg
same,half-life,[5],7.3 h
same,bioavailability,[6],25%
same,clearance,[7],17 mL/min/kg
same,Vd,[8],3.1 L/kg
